Type in all cases: biochemical
One assay addresses JAK2 (Homo sapiens (Human), UniProt O60674). Description: Inhibition of JAK2, luminescence kinase assay (ADP-Glo). The conditions noted are these: purified recombinant JAK2. The method, then:
(§1) The study of the effect of compounds on the activity of purified recombinant JAK was performed by studying the inhibitory activity of the compounds on JAK from the enzymatic level. The experimental principle is to use a luminescence kinase assay to detect the ADP content produced by the reaction of JAK with the substrate Poly (4:1 Glu, Tyr) peptide: after ADP is converted to ATP, ATP can act as a substrate for the Ultra-Glo luciferase catalytic reaction, producing an optical signal. The luminescence signal is positively correlated with the amount of ADP and kinase activity. Therefore, the inhibitory effect of the compounds on the recombinant JAK was determined by observing the luminescence signal produced by the reaction of JAK and the substrate, and was expressed by IC50.
(§2) Experimental method: 10 different concentrations of compounds were incubated with JAK1, JAK2 and JAK3, respectively, for 60 minutes at 37° C. The substrate and ATP were then added, mixed, and reacted at 37° C. for 50 minutes. 25 μl of ADP-Glo™ was added and mixed for 2 minutes. The reaction was carried out for 50 minutes at room temperature. Further, 50 μl of the detection reagent was added and mixed for 2 minutes, and incubated at room temperature for 50 minutes, and detected by a chemiluminometer.

The next assay has as its target JAK1 (Homo sapiens (Human), UniProt P23458). Description: Inhibition of JAK1, luminescence kinase assay (ADP-Glo). The note with it: purified recombinant JAK1. The method, then:
as §1, §2
A general note: In ADP-Glo the light output rises with the ADP produced.

A further assay addresses JAK3 (Homo sapiens (Human), UniProt P52333). Briefly: Inhibition of JAK3, luminescence kinase assay (ADP-Glo). The note with it: purified recombinant JAK3. The method, then:
as §1, §2

Bounds are passed on as bounds.

Sequence of JAK2 (O60674 whole entry): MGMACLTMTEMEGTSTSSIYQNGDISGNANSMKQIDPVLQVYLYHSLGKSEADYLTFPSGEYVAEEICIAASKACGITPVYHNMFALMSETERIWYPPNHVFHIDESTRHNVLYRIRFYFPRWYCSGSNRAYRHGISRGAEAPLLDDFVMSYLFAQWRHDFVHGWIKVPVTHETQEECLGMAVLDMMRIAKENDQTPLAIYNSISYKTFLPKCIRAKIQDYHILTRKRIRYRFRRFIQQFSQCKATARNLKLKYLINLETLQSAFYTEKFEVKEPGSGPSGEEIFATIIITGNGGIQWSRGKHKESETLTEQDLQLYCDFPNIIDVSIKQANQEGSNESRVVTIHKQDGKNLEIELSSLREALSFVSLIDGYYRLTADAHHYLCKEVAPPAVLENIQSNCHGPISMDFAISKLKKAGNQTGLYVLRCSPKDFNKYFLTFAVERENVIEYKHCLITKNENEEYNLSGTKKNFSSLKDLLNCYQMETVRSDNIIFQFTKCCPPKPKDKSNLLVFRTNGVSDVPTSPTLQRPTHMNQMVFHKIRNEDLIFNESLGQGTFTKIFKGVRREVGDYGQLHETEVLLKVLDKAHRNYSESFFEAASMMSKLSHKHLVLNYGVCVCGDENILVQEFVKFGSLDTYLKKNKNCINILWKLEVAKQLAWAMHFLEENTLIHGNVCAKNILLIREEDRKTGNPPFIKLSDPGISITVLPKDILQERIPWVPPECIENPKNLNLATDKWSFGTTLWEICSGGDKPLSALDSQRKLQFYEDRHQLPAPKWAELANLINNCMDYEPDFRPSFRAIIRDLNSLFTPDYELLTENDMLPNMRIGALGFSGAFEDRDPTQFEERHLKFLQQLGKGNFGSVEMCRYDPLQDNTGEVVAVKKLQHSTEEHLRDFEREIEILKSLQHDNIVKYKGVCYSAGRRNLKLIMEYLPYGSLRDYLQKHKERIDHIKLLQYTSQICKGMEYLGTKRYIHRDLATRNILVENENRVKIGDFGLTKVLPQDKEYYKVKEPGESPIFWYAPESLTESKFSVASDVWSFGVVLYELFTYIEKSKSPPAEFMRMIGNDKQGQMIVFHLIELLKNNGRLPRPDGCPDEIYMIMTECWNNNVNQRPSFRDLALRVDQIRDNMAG
Sequence of JAK1 (P23458 whole entry): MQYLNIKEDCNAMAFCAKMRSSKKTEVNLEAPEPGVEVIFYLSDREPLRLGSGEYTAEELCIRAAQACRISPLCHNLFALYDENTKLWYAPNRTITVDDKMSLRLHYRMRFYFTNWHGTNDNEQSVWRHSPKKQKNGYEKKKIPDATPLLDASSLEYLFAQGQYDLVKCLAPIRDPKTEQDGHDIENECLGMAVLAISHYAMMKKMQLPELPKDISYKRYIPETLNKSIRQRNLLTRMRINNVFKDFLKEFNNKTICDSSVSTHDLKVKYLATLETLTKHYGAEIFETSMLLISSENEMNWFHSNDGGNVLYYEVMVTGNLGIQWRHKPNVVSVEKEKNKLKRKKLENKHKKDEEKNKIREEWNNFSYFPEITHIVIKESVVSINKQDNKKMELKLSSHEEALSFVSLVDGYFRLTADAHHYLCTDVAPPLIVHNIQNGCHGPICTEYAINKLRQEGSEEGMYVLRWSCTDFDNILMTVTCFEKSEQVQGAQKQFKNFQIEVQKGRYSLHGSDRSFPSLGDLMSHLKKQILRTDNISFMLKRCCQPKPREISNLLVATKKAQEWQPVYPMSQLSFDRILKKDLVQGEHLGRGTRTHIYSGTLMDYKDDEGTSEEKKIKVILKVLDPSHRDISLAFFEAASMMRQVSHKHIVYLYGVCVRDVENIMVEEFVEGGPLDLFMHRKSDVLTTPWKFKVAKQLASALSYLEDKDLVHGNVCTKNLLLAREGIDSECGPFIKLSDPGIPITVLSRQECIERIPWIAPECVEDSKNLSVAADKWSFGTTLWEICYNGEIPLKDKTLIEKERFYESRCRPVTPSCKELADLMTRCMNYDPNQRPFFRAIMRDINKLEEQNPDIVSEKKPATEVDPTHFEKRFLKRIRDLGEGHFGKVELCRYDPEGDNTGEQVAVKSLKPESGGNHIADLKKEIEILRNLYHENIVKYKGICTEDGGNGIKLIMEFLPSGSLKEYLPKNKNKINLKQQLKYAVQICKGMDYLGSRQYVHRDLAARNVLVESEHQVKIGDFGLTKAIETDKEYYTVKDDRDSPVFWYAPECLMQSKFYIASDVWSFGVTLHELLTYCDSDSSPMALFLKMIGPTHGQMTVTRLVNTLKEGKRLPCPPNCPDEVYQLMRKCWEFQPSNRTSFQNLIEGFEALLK
Sequence of JAK3 (P52333 whole entry): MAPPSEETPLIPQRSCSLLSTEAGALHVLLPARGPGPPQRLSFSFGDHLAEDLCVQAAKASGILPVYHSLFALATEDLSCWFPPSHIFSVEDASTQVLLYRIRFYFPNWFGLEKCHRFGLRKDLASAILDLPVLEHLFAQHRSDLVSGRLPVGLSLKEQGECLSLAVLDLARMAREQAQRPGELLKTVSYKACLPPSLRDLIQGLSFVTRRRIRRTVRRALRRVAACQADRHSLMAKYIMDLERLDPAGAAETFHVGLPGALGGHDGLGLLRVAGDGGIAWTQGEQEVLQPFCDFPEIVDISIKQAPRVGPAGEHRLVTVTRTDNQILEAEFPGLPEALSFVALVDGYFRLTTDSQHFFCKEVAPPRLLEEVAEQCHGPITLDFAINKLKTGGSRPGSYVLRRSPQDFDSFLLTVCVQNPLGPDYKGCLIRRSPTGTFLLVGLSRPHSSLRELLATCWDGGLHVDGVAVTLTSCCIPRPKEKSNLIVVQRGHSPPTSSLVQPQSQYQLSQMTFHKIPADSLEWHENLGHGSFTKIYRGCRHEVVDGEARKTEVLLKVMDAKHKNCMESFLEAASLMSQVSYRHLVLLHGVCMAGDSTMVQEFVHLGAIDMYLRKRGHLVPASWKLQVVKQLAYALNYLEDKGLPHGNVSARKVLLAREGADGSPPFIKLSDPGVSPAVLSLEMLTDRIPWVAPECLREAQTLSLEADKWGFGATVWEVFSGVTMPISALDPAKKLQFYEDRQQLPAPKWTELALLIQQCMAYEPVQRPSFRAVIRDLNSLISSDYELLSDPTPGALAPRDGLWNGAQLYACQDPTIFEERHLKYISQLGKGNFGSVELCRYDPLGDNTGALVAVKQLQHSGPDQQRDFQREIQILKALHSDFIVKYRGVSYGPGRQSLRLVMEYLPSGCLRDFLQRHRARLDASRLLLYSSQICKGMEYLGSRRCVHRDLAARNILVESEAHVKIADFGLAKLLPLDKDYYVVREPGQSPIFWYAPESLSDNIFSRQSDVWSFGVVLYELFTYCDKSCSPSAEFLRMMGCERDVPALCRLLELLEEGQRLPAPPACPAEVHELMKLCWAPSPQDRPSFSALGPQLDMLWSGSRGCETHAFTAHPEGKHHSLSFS

Consider `CCS(=O)(=O)N1CC(CC#N)(n2cc(-c3c[nH]c4ncccc34)cn2)C1` [Example 1, 2-(3-(4-(1H-pyrrolo[2,3-b]pyridin-3-yl)-1H-pyrazol-1-yl)-1-(ethylsulfonyl)azetidin-3-yl)acetonitrile], for which the IC50 (commonly the midpoint of a concentration-inhibition curve) at JAK2 fell in the range of 20 to 50 nM.

Take `N#CCC1(n2cc(-c3c[nH]c4ncccc34)cn2)CCS(=O)(=O)CC1` [Example 2, 2-(4-(4-(1H-pyrrolo[2,3-b]pyridin-3-yl)-1H-pyrazol-1-yl)-1,1-dioxotetrahydro-2H-thiopyran-4-yl)acetonitrile]: the values for the 50% inhibitory concentration (IC50) at JAK1, on JAK2 and at JAK3 were < 20 nM, 20 to 50 nM and > 50 nM, respectively.

Consider `N#CCC1(n2cc(-c3ccnc4[nH]ccc34)cn2)CCS(=O)(=O)CC1` [Example 4, 2-(4-(4-(1H-pyrrolo[2,3-b]pyridin-4-yl)-1H-pyrazol-1-yl)-1,1-dioxotetrahydro-2H-thiopyran-4-yl)acetonitrile], for which the IC50 at JAK1 was < 20 nM; at JAK2 it was < 20 nM; at JAK3 it was > 50 nM.

As to `CS(=O)(=O)N1CCC(CC#N)(n2cc(-c3c[nH]c4ncccc34)cn2)CC1` [Example 5], the half-maximal inhibitory concentration (IC50) at JAK1 and at JAK3 was < 20 nM each time.

Consider `CCS(=O)(=O)N1CC(CC(N)=O)(n2cc(-c3c[nH]c4ncccc34)cn2)C1` [Example 6, 2-(3-(4-(1H-pyrrolo[2,3-b]pyridin-3-yl)-1H-pyrazol-1-yl)-1-(ethylsulfonyl)azetidin-3-yl)acetamide], for which the concentration for half-maximal inhibition (IC50) at JAK1, at JAK2 and on JAK3 was > 50 nM each time.

For `CCS(=O)(=O)N1CC(CC(=O)NCC(F)(F)F)(n2cc(-c3c[nH]c4ncccc34)cn2)C1` [Example 7, 2-(3-(4-(1H-pyrrolo[2,3-b]pyridin-3-yl)-1H-pyrazol-1-yl)-1-(ethylsulfonyl)azetidin-3-yl)-N-(2,2,2-trifluoroethyl)acetamide], the half-inhibitory concentration (IC50) on JAK1, on JAK2 and on JAK3 was > 50 nM in each case.

Consider `CCS(=O)(=O)N1CC(CC(=O)NCC(F)(F)F)(n2cc(-c3ncnc4[nH]ccc34)cn2)C1` [Example 8, 2-(3-(4-(1H-pyrrolo[2,3-d]pyrimidin-4-yl)-1H-pyrazol-1-yl)-1-(ethylsulfonyl)azetidin-3-yl)-N-(2,2,2-trifluoroethyl)acetamide], for which the IC50 on JAK1, at JAK2 and on JAK3 was > 50 nM each time.

For the compound `CCS(=O)(=O)N1CC(CC(=O)NCC(F)(F)F)(n2cc(-c3ccnc4[nH]ccc34)cn2)C1` [Example 9, 2-(3-(4-(1H-pyrrolo[2,3-b]pyridin-4-yl)-1H-pyrazol-1-yl)-1-(ethylsulfonyl)azetidin-3-yl)-N-(2,2,2-trifluoroethyl)acetamide], the 50% inhibitory concentration (IC50) on JAK1, on JAK2 and at JAK3 was > 50 nM in each case.

On to `CCS(=O)(=O)N1CC(CC(=O)NC)(n2cc(-c3ccnc4[nH]ccc34)cn2)C1` [Example 10, 2-(3-(4-(1H-pyrrolo[2,3-b]pyridin-4-yl)-1H-pyrazol-1-yl)-1-(ethylsulfonyl)azetidin-3-yl)-N-methylacetamide], for which the IC50 at JAK1, on JAK2 and at JAK3 was > 50 nM throughout.

As for `CCS(=O)(=O)N1CC(CC(N)=O)(n2cc(-c3ccnc4[nH]ccc34)cn2)C1` [Example 11, 2-(3-(4-(1H-pyrrolo[2,3-b]pyridin-4-yl)-1H-pyrazol-1-yl)-1-(ethylsulfonyl)azetidin-3-yl)acetamide], the IC50 at JAK1, at JAK2 and on JAK3 was > 50 nM throughout.

Regarding `CS(=O)(=O)N1CC(CC(=O)NCC(F)(F)F)(n2cc(-c3ncnc4[nH]ccc34)cn2)C1` [Example 12, 2-(3-(4-(7H-pyrrolo[2,3-d]pyrimidin-4-yl)-1H-pyrazol-1-yl)-1-(methylsulfonyl)azetidin-3-yl)-N-(2,2,2-trifluoroethyl)acetamide], the IC50 on JAK1 is 20 to 50 nM; at JAK2 it was 20 to 50 nM; at JAK3, > 50 nM.

As for `CNC(=O)CC1(n2cc(-c3ncnc4[nH]ccc34)cn2)CN(S(C)(=O)=O)C1` [Example 13, 2-(3-(4-(7H-pyrrolo[2,3-d]pyrimidin-4-yl)-1H-pyrazol-1-yl)-1-(methylsulfonyl)azetidin-3-yl)-N-methylacetamide], the IC50 at JAK1, on JAK2 and at JAK3 was > 50 nM each time.

Consider `CS(=O)(=O)N1CC(CC(N)=O)(n2cc(-c3ncnc4[nH]ccc34)cn2)C1` [Example 14, 2-(3-(4-(7H-pyrrolo[2,3-d]pyrimidin-4-yl)-1H-pyrazol-1-yl)-1-(methylsulfonyl)azetidin-3-yl) acetamide], for which the results for the half-maximal inhibitory concentration (IC50) at JAK1, on JAK2 and on JAK3 were 20 to 50 nM, 20 to 50 nM and > 50 nM, respectively.

Consider `CS(=O)(=O)N1CC(CC(=O)NCC(F)(F)F)(n2cc(-c3ccnc4[nH]ccc34)cn2)C1` [Example 15, 2-(3-(4-(1H-pyrrolo[2,3-b]pyridin-4-yl)-1H-pyrazol-1-yl)-1-(methylsulfonyl)azetidin-3-yl)-N-(2,2,2-trifluoroethyl)acetamide], for which the figures for the IC50 on JAK1, on JAK2 and on JAK3 were < 20 nM, 20 to 50 nM and < 20 nM, respectively.

Turning to `NC(=O)CC1(n2cc(-c3c[nH]c4ncccc34)cn2)CCS(=O)(=O)CC1` [Example 18, 2-(4-(4-(1H-pyrrolo[2,3-b]pyridin-3-yl)-1H-pyrazol-1-yl)-1,1-dioxotetrahydro-2H-thiopyran-4-yl)acetamide], the concentration for half-maximal inhibition (IC50) is < 20 nM at JAK1, > 50 nM on JAK2 and < 20 nM at JAK3.

As for `O=C(CC1(n2cc(-c3c[nH]c4ncccc34)cn2)CCS(=O)(=O)CC1)NCC(F)(F)F` [Example 19, 2-(4-(4-(1H-pyrrolo[2,3-b]pyridin-3-yl)-1H-pyrazol-1-yl)-1,1-dioxotetrahydro-2H-thiopyran-4-yl)-N-(2,2,2-trifluoroethyl)acetamide], the concentration for half-maximal inhibition (IC50) at JAK1 was 20 to 50 nM; at JAK2, > 50 nM; on JAK3, > 50 nM.

As for `O=C(CC1(n2cc(-c3ncnc4[nH]ccc34)cn2)CCS(=O)(=O)CC1)NCC(F)(F)F` [Example 20, 2-(4-(4-(7H-pyrrolo[2,3-d]pyrimidin-4-yl)-1H-pyrazol-1-yl)-1,1-dioxotetrahydro-2H-thiopyran-4-yl)-N-(2,2,2-trifluoroethyl)acetamide], the half-inhibitory concentration (IC50) at JAK1 is 20 to 50 nM; at JAK2, > 50 nM; at JAK3 it was > 50 nM.

Consider `O=C(CC1(n2cc(-c3c[nH]c4ncccc34)cn2)CCCC1)NCC(F)(F)F` [Example 25, 2-(1-(4-(1H-pyrrolo[2,3-b]pyridin-3-yl)-1H-pyrazol-1-yl)cyclopentyl)-N-(2,2,2-trifluoroethyl) acetamide], for which the 50% inhibitory concentration (IC50) on JAK1 and on JAK3 was 20 to 50 nM in each case.

In the case of `O=C(CC1(n2cc(-c3ncnc4[nH]ccc34)cn2)CCCC1)NCC(F)(F)F` [Example 26, 2-(1-(4-(1H-pyrrolo[2,3-b]pyrimidin-4-yl)-1H-pyrazol-1-yl)cyclopentyl)-N-(2,2,2-trifluoroethyl)acetamide], the IC50 at JAK1 was 20 to 50 nM.

As for `CS(=O)(=O)N1CC(Nc2ccnc(-c3c[nH]c4ncccc34)n2)(C(=O)NCC(F)(F)F)C1` [Example 31, 3-((2-(1H-pyrrolo[2,3-b]pyridin-3-yl)pyrimidin-4-yl)amino)-1-(methylsulfonyl)-N-(2,2,2-trifluoroethyl)azetidin-3-carboxamide], the IC50 at JAK1 and on JAK2 was > 50 nM throughout.

In the case of `CCS(=O)(=O)N1CC(Nc2ccnc(-c3c[nH]c4ncccc34)n2)(C(=O)NCC(F)(F)F)C1` [Example 32, 3-((2-(1H-pyrrolo[2,3-b]pyridin-3-yl)pyrimidin-4-yl)amino)-1-(ethylsulfonyl)-N-(2,2,2-trifluoroethyl)azetidin-3-carboxamide], the IC50 at JAK1 and on JAK2 was > 50 nM throughout.

For `CS(=O)(=O)N1CC(Nc2nc(-c3c[nH]c4ncccc34)ncc2F)(C(=O)NCC(F)(F)F)C1` [Example 34], the IC50 on JAK1 and at JAK2 was > 50 nM each time.

Turning to `CCS(=O)(=O)N1CCC(Nc2ccnc(-c3c[nH]c4ncccc34)n2)(C(=O)NCC(F)(F)F)CC1` [Example 38, 4-((2-(1H-pyrrolo[2,3-b]pyridin-3-yl)pyrimidin-4-yl)amino)-1-(ethylsulfonyl)-N-(2,2,2-trifluoroethyl)piperidin-4-carboxamide], the 50% inhibitory concentration (IC50) on JAK3 fell in the range of 20 to 50 nM.

`O=C(NCC(F)(F)F)C1(Nc2nc(-c3c[nH]c4ncccc34)ncc2F)CCS(=O)(=O)CC1` [Example 44, 4-((5-fluoro-2-(1H-pyrrolo[2,3-b]pyridin-3-yl)pyrimidin-4-yl)amino)-N-(2,2,2-trifluoroethyl)tetrahydro-2H-thiopyran-4-carboxamide 1,1-dioxide]: the half-inhibitory concentration (IC50) was > 50 nM on JAK1 and 20 to 50 nM at JAK2.

Regarding `CCS(=O)(=O)N1CC(C#N)(Nc2ccnc(-c3ccnc4[nH]ccc34)n2)C1` [Example 47, 3-((2-(1H-pyrrolo[2,3-b]pyridin-4-yl)pyrimidin-4-yl)amino)-1-(ethylsulfonyl)azetidine-3-carbonitrile], the IC50 at JAK3 fell in the range of 20 to 50 nM.

Values taken from US11414413B2, “Heterocyclic compound as JAK inhibitor, and salts and therapeutic use thereof” (Suzhou Longbiotech Pharmaceuticals Co., Ltd., priority 2016, dated 2022).
